In experiment [1] the target is T1, AR (L702H) in LNCaP cells (Homo sapiens, UniProt P10275, L702H/T878A).
T1 construct: engineered to introduce the mutation L702H into the AR gene using CRISPR/Cas9; endogenous in cells; host or cells: LNCaP cells edited by CRISPR/Cas9 at the AR gene
In words: LNCaP Androgen Receptor L702H Imaging Assay (LNCaP cells engineered by CRISPR/Cas9). The conditions noted are these: LNCaP cells with AR L702H mutation, 24 h incubation; for DC50: concentration giving 50% of maximum degradation of AR (L702H) per curve fit; for Dmax: LNCaP, maximum degradation observed, normalized as % of positive control. In kind it is cell-based. The gist of the method: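 CRISPR-engineered LNCaP cells carrying AR L702H were treated 24 h at 37 °C with a 12-point compound dose response (0.3% DMSO), then fixed and immunostained for AR with DRAQ5 nuclear counterstain. Nuclear AR was quantified by imaging, normalized to positive control; DC50 and Dmax came from Hill or bell-shaped fits.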

Experiment [2] has as its target T2, AR (AR-full length) in LNCaP cells (Homo sapiens, UniProt P10275, T878A).
T2 construct: the prostate cancer cell line LNCaP (expressing AR-full length); endogenous in cells; host or cells: LNCaP
In words: LNCaP Androgen Receptor Imaging Assay (immunofluorescence of endogenous nuclear AR). In kind it is cell-based. Conditions: 24 h incubation; for DC50: concentration giving 50% of maximum degradation of AR per curve fit, single experiment or average of two or more; for Dmax: LNCaP, maximum degradation observed, normalized as % of positive control (prior art AR PROTAC at 3 μM). Summed up:
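LNCaP cells (12,000/well) received a 12-point compound dose series (0.3% DMSO) for 24 h at 37° C., then were PFA-fixed and stained for AR (AR441) and nuclei (DRAQ5). Nuclear AR was quantified by imaging, normalized to a 3 μM AR PROTAC control; DC50 and Dmax came from Hill/bell curve fits.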

Data on twelve compounds can be found in patent US20260274832A1, “COMPOUNDS AND THEIR USE IN TREATING CANCER” (ASTRAZENECA AB, priority 2023, published 2026).

T1 sequence (P10275 whole entry L702H/T878A): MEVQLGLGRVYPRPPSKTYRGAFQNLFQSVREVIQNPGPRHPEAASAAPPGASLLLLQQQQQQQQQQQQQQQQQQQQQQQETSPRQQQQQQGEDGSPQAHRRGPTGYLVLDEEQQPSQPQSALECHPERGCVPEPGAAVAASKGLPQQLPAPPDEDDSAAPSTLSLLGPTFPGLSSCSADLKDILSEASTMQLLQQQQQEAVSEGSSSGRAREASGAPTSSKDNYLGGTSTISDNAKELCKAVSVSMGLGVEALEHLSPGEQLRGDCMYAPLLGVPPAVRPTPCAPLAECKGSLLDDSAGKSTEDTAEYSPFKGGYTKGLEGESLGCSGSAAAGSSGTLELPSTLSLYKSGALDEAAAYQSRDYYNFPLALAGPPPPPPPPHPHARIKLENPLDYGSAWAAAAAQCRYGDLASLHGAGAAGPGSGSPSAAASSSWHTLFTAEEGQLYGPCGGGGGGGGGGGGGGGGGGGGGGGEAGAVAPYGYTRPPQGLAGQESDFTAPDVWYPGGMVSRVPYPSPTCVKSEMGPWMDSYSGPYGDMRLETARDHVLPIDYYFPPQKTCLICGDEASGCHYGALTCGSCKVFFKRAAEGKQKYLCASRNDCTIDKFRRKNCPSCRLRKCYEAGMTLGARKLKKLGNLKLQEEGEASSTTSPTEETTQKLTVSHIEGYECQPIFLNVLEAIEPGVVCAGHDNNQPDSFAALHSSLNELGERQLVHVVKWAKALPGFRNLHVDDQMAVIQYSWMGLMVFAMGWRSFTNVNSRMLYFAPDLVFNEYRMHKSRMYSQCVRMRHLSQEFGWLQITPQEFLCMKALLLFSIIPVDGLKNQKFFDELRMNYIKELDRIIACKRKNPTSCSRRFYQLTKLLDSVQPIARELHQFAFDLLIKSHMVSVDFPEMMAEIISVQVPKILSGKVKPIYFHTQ
T1 sequence (Q96SW2 whole entry partner): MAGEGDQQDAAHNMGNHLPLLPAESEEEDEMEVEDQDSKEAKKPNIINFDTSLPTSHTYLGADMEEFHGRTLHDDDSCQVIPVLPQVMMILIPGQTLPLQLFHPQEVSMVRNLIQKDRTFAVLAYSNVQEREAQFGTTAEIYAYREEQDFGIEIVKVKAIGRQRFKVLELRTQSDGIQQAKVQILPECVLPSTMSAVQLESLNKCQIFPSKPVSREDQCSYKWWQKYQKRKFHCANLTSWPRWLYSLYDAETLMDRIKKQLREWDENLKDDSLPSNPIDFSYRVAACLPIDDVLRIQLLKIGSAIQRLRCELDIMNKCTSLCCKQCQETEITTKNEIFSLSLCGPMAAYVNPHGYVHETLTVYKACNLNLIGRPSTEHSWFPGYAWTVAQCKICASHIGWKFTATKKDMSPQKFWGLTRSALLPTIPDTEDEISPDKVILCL
T2 sequence (P10275 whole entry T878A): as the sequence (P10275 whole entry L702H/T878A) above, with H702L counted along it
T2 sequence (Q96SW2 whole entry partner): as the sequence (Q96SW2 whole entry partner) above

For the compound `Cn1c(C2CCN(CC3CCN(c4ccc([C@H]5CCCN(c6ccc(Cl)c7c(C#N)n[nH]c67)C5)cc4)CC3)CC2)cc2cc(F)c(N3CCC(=O)NC3=O)cc21` [Example 138, 4-Chloro-7-[(3R)-3-{4-[4-({4-[6-(2,4-dioxo-1,3-diazinan-1-yl)-5-fluoro-1-methyl-1H-indol-2-yl]piperidin-1-yl}methyl)piperidin-1-yl]phenyl}piperidin-1-yl]-1H-indazole-3-carbonitrile], in experiment [1], it took 6 nM to reach half-maximal degradation (DC50) and the Dmax came out at 108%. Moreover, in experiment [2], the DC50 stood at 8 nM and the Dmax stood at 104%.

For the compound `N#Cc1c[nH]c2c(N3CCC(c4ccc(N5CCC(CN6CCN(c7ccc8c(c7)CN(C7CCC(=O)NC7=O)C8=O)CC6)CC5)cc4)CC3)ccc(F)c12` (single isomer, unassigned) [Example 3, 7-(4-{4-[4-({4-[2-(2,6-Dioxopiperidin-3-yl)-1-oxo-2,3-dihydro-1H-isoindol-5-yl]piperazin-1-yl}methyl)piperidin-1-yl]phenyl}piperidin-1-yl)-4-fluoro-1H-indole-3-carbonitrile], in experiment [1], the 50% degradation concentration (DC50) stood at 17 nM and the Dmax stood at 99%. In experiment [2], half-maximal degradation (DC50) was put at 18 nM and the Dmax was 85%.

Turning to `Cc1cc(N2CCC(CN3CCC(n4ccc5c(N6CCC(=O)NC6=O)cccc54)CC3)CC2)ccc1C(=O)NC1CCN(c2ccc(Cl)c3c(C#N)c[nH]c23)CC1` [Example 178, N-[1-(4-Chloro-3-cyano-1H-indol-7-yl)piperidin-4-yl]-4-[4-({4-[4-(2,4-dioxo-1,3-diazinan-1-yl)-1H-indol-1-yl]piperidin-1-yl}methyl)piperidin-1-yl]-2-methylbenzamide], in experiment [1], it took 2 nM to reach half-maximal degradation (DC50) and the Dmax is 107%. Further, in experiment [2], half-maximal degradation (DC50) was put at 2 nM and the Dmax was found to be 106%.

Take `COc1cc(N2CCN(CC3CCN(c4ccc(C5CCN(c6ccc(C)c7c(C#N)c[nH]c67)CC5)c(F)c4)CC3)CC2)cc2c1C(=O)N(C1CCC(=O)NC1=O)C2` (stereo not drawn) [Example 41, 7-(4-{4-[4-({4-[2-(2,6-Dioxopiperidin-3-yl)-7-methoxy-1-oxo-2,3-dihydro-1H-isoindol-5-yl]piperazin-1-yl}methyl)piperidin-1-yl]-2-fluorophenyl}piperidin-1-yl)-4-methyl-1H-indole-3-carbonitrile]: in experiment [1], it took 29 nM to reach half-maximal degradation (DC50) and the Dmax worked out at 95%. In experiment [2], half-maximal degradation (DC50) was put at 17 nM and the Dmax was 98%.

In the case of `Cc1cc2c(N3CCC(=O)NC3=O)cccc2n1C1CCN(CC2CCN(c3ccc(C4CCN(c5ccc(Cl)c6c(C#N)c[nH]c56)CC4)cc3)CC2)CC1` [Example 123, 4-Chloro-7-(4-{4-[4-({4-[4-(2,4-dioxo-1,3-diazinan-1-yl)-2-methyl-1H-indol-1-yl]piperidin-1-yl}methyl)piperidin-1-yl]phenyl}piperidin-1-yl)-1H-indole-3-carbonitrile], the 50% degradation concentration (DC50) was determined as 18 nM in experiment [1] and 14 nM in experiment [2]. Also, the Dmax worked out at 104% in experiment [1] and 95% in experiment [2].

In the case of `N#Cc1c[nH]c2c(N3CCC(c4ccc(OCCCCN5CCN(c6ccc7c(c6)CN(C6CCC(=O)NC6=O)C7=O)CC5)cc4)CC3)ccc(F)c12` (stereo not drawn) [Example 44, 7-{4-[4-(4-{4-[2-(2,6-Dioxopiperidin-3-yl)-1-oxo-2,3-dihydro-1H-isoindol-5-yl]piperazin-1-yl}butoxy)phenyl]piperidin-1-yl}-4-fluoro-1H-indole-3-carbonitrile], in experiment [1], the 50% degradation concentration (DC50) was determined as 2 nM and the Dmax is 96%. Further, in experiment [2], the 50% degradation concentration (DC50) was 4 nM and the Dmax came out at 95%.

In the case of `Cn1c(C2CCN(CC3CCN(c4ccc([C@@H]5CCCN(c6ccc(Cl)c7c(C#N)c[nH]c67)C5)cc4)CC3)CC2)cc2ccc(N3CCC(=O)NC3=O)cc21` [Example 13, 4-Chloro-7-[(3S)-3-{4-[4-({4-[6-(2,4-dioxo-1,3-diazinan-1-yl)-1-methyl-1H-indol-2-yl]piperidin-1-yl}methyl)piperidin-1-yl]phenyl}piperidin-1-yl]-1H-indole-3-carbonitrile], in experiment [1], it took 6 nM to reach half-maximal degradation (DC50) and the Dmax was 109%. Moreover, in experiment [2], half-maximal degradation (DC50) was put at 7 nM and the Dmax amounted to 107%.

For the compound `COc1cc(N2CCN(CC3CCN(c4ccc(C5CCN(c6ccc(C)c7c(C#N)c[nH]c67)CC5)c(F)c4)CC3)CC2)cc2c1C(=O)N(C1CCC(=O)NC1=O)C2=O` (stereo not drawn) [Example 43, 7-(4-{4-[4-({4-[2-(2,6-Dioxopiperidin-3-yl)-7-methoxy-1,3-dioxo-2,3-dihydro-1H-isoindol-5-yl]piperazin-1-yl}methyl)piperidin-1-yl]-2-fluorophenyl}piperidin-1-yl)-4-methyl-1H-indole-3-carbonitrile], in experiment [1], the DC50 came to 160 nM and the Dmax amounted to 97%. Moreover, in experiment [2], it took 73 nM to reach half-maximal degradation (DC50) and the Dmax was found to be 94%.

`COc1nc(N2CCC(CN3CCC(c4ccc(N5CCCC(c6ccc(Cl)c7c(C#N)c[nH]c67)C5)cc4)CC3)CC2)cc2c1C(=O)N(C1CCC(=O)NC1=O)C2` (single isomer, unassigned) [Example 98, 4-Chloro-7-[(3R*)-1-{4-[1-({1-[2-(2,6-dioxopiperidin-3-yl)-4-methoxy-3-oxo-2,3-dihydro-1H-pyrrolo[3,4-c]pyridin-6-yl]piperidin-4-yl}methyl)piperidin-4-yl]phenyl}piperidin-3-yl]-1H-indole-3-carbonitrile]: in experiment [1], the 50% degradation concentration (DC50) came out at 15 nM and the Dmax stood at 83%. In experiment [2], the DC50 is 90 nM and the Dmax was 40%.

In the case of `COc1nc(N2CCN(CC3CCN(c4ccc(N5CCCC(c6ccc(Cl)c7c(C#N)c[nH]c67)C5)cc4)CC3)CC2)cc2c1C(=O)N(C1CCC(=O)NC1=O)C2` (single isomer, unassigned) [Example 91, 4-Chloro-7-[(3R*)-1-{4-[4-({4-[2-(2,6-dioxopiperidin-3-yl)-4-methoxy-3-oxo-2,3-dihydro-1H-pyrrolo[3,4-c]pyridin-6-yl]piperazin-1-yl}methyl)piperidin-1-yl]phenyl}piperidin-3-yl]-1H-indole-3-carbonitrile], in experiment [1], the 50% degradation concentration (DC50) came to 10 nM and the Dmax was found to be 99%. Further, in experiment [2], the DC50 came to 23 nM and the Dmax worked out at 100%.

Take `N#Cc1c[nH]c2c(N3CCC(c4ccc(C(=O)N5CCC(CN6CCN(c7cc8c(cc7F)C(=O)N(C7CCC(=O)NC7=O)C8=O)CC6)CC5)cc4)CC3)ccc(Cl)c12` (stereo not drawn) [Example 100, 4-Chloro-7-(4-{4-[4-({4-[2-(2,6-dioxopiperidin-3-yl)-6-fluoro-1,3-dioxo-2,3-dihydro-1H-isoindol-5-yl]piperazin-1-yl}methyl)piperidine-1-carbonyl]phenyl}piperidin-1-yl)-1H-indole-3-carbonitrile]: in experiment [1], it took 449 nM to reach half-maximal degradation (DC50) and the Dmax stood at 89%. Besides, in experiment [2], half-maximal degradation (DC50) was put at 29 nM and the Dmax was 101%.

In the case of `N#Cc1n[nH]c2c(N3CCC(c4ccc(N5CCC(CN6CCC(n7ccc8c(N9CCC(=O)NC9=O)cccc87)CC6)CC5)cc4)CC3)ccc(F)c12` [Example 147, 7-(4-{4-[4-({4-[4-(2,4-Dioxo-1,3-diazinan-1-yl)-1H-indol-1-yl]piperidin-1-yl}methyl)piperidin-1-yl]phenyl}piperidin-1-yl)-4-fluoro-1H-indazole-3-carbonitrile], in experiment [1], the DC50 was determined as 38 nM and the Dmax was found to be 96%. In experiment [2], half-maximal degradation (DC50) was put at 6 nM and the Dmax came out at 102%.

As usually defined, the DC50 is the concentration giving 50% degradation. Low values mean degradation at low concentration, high ones degradation only at high concentration. What is called Dmax is the greatest extent of degradation seen.
